This note sets out measurements from patent publication US8293786B2 (Alltranz Inc., priority 2007, dated 2012).

“Also recorded” adds a separate entry of the source. Where a name gives a salt, the structure may show the parent alone.

The test system of this data set is human abdominal skin. In words: In vitro human skin permeation and skin disposition, flow-through diffusion cells (Examples 2, 2A, 2B). Type of data set: in vitro ADME. The conditions noted are these: for 24 h cumulative amt / 24 h skin conc / Flux / Lag time / Flux enhancement: 40% aqueous PEG 400 receiver fluid; for Flux enhancement: total cannabidiol versus cannabidiol. The procedure:
Flow through diffusion cells were used for the permeation studies. HEPES-buffered Hanks' balanced salts containing 40% PEG 400 with gentamicin or 40% aqueous PEG 400 with gentamicin were used for the receiver compartment. Donor solution was comprised of 90:8:2 PG:H2O:IPM solution or gel formulation. […] Drug accumulation in the skin after a 24, 30 or 42 h diffusion experiment was determined as μmol/g wet tissue weight.
The skin samples used in the following experiments were obtained from abdominal reduction surgery and dermatomed to a thickness of approximately 200 μm. The skin samples used herein were frozen at −20° C. for less than six months.
One (1) L of receiver fluid was prepared by measuring 1 L of nanopure water into a graduated cylinder. 90% of the water was added to an Erlenmeyer flask. Hanks' salts (1 bottle) were added to the water along with 5.96 g of HEPES and 0.35 g of sodium bicarbonate. The pH of the solution was adjusted with 1 N sodium hydroxide solution to pH 7.4. The remaining water was added and the receiver fluid was filtered through a 0.2μ filter (Millipore, Billerica, Mass.). Fifty (50) mg of gentamicin was added to the filtered receiver fluid and 400 mL of the receiver fluid was removed and replaced with 400 mL of PEG 400.
The receiver fluid was prepared by measuring 600 mL of nanopure H2O into a graduated cylinder. The H2O was filtered through a 0.2μ filter (Millipore, Billerica, Mass.). Fifty (50) mg of gentamicin was added to the filtered H2O and 400 mL of PEG 400 was added.
The prodrugs were made up in a solution of 45:4:1 PG:H2O:IPM. For this solution, the appropriate amount of drug was weighed into a glass silanized culture tube and IPM was added, the 50 μL of PG to coat the drug, then an additional 247 μL PG was added and the donor solution was vortexed again. Finally 26 μL of water was added. The gel formulation resulted from the mixing of absolute ethanol, nanopure water, IPM, Carbopol® 980, 0.1 N sodium hydroxide solution and the respective drug.
The gel formulation was comprised of absolute ethanol, nanopure water, IPM, Carbopol® 980, 0.1 sodium hydroxide solution and respective drug. The anhydrous gel was comprised of absolute ethanol, PEG monoethyl ether 550, Klucel® hydroxypropylcellulose, and respective drug.
Dermatomed skin harvested from abdominoplasty, stored at −20° C., was used for the experiments. A PermeGear flow-through (In-Line, Hellertown, Pa.) diffusion cell system was used for the skin permeation studies.
Diffusion cells were kept at 32° C. with a circulating water bath. Human epidermal skin was arranged in the diffusion cell with stratum corneum (upper layer of skin) facing the donor compartment. The permeation area of the skin was 0.95 cm^2. The data was collected from a human skin donor with three diffusion cells per treatment.
The receiver solution was HEPES-buffered Hanks' balanced salts with gentamicin containing 40% PEG 400 at a pH of 7.4 or 40% aqueous PEG 400 and flow rate was adjusted to 0.8 mL/h. Each cell was charged with 0.10 mL of the respective drug formulation (donor solution) or 50 μL of gel formulation which was rubbed into the skin for 15 sec with a Teflon coated rod. The formulation was applied to ensure complete coverage. […]. Diffusion cells were covered with a stopper or cap for the duration of the study.
Samples were collected into scintillation vials in 3 h increments for either 24, 30, or 42 h. All the samples were stored at 4° C. until extracted. An aliquot (0.5 mL) of the diffusion sample was placed into a silanized HPLC vial and 0.5 mL of acetonitrile was added to the sample, capped and vortexed.
At the end of the experiment, the skin tissue was removed from the diffusion cell, rinsed with nanopure water, and blotted dry with a paper towel. The skin was tape stripped twice using book tape (Scotch™, 3M, St. Paul, Minn.) to remove drug formulation adhering to the tissue surface.

The mark [1] stands for this setting: Table 19, gel formulation, CBD from applied prodrug.
Where [2] appears, read: Table 19, gel formulation, as applied compound (CBD or intact prodrug).
Setting [3] is: Table 19, gel formulation, prodrug applied, as total cannabidiol equivalents.
Where [4] appears, read: Table 21, gel formulation, CBD from applied prodrug.
Setting [5] is: Table 21, gel formulation, as applied compound (CBD or intact prodrug).
Setting [6] is: Table 21, gel formulation, prodrug applied, as total cannabidiol equivalents.
Where [7] appears, read: Table 23, gel formulation, CBD from applied prodrug.
Setting [8] is: in an anhydrous gel formulation.

Take `C=C(C)[C@@H]1CCC(C)=C[C@H]1c1c(O)cc(CCCCC)cc1OC=O` [ALL00146, CBD Formate]: the “24 h cumulative amt” value is listed as 10.7 ± 0.5 nmol under setting [1]; 4.0 ± 0.0 nmol under setting [2]; 12.7 ± 2.3 nmol under setting [3]; 2.7 ± 1.4 nmol under setting [4]; 2.7 ± 1.4 nmol under setting [6]; 5.9 nmol under setting [7]. In addition, the “24 h skin conc” value came out at 0.8 ± 0.1 µmol/g under setting [1]; 3.3 ± 0.5 µmol/g under setting [2]; 4.1 ± 0.4 µmol/g under setting [3]; 3.7 ± 2.1 µmol/g under setting [4]; 16.0 ± 9.8 µmol/g under setting [5]; 19.7 ± 11.9 µmol/g under setting [6]. For the same molecule, the Flux runs as follows: under setting [1], 0.8 ± 0.1 nmol/cm^2/h; under setting [2], 0.3 ± 0.0 nmol/cm^2/h; under setting [3], 0.9 ± 0.1 nmol/cm^2/h; under setting [4], 0.2 ± 0.1 nmol/cm^2/h; under setting [6], 0.2 ± 0.1 nmol/cm^2/h; under setting [7], 0.26 nmol/cm^2/h. For the same molecule, the Lag time under setting [1] is on record as 9.1 ± 0.9 h; the Lag time under setting [2] is 7.0 ± 0.0 h; the Lag time under setting [3] is listed as 8.9 ± 1.1 h; the Lag time under setting [4] amounted to 9.8 ± 3.7 h; the Lag time under setting [6] was found to be 9.8 ± 3.7 h; the Lag time under setting [7] came to 0.4 h. For the same molecule, the Flux enhancement came to 1.09 (Table 19, gel formulation) and 0.53 (Table 21, gel formulation). Moreover, the “detected in the skin as” value (in gel formulation) is “intact prodrug and cannabidiol; also recorded: small amount of cannabidiol with the remaining being prodrug”. The “flux compared to cannabidiol” value (in gel formulation) is listed as “did slightly increase the flux; also recorded: didn't increase the flux”.

`C=C(C)C1CCC(C)=CC1c1c(O)cc(CCCCC)cc1OC(=O)CN(C)C` (centres unmarked) [ALL00148, CBD N,N-dimethylglycinate]: under setting [1], the “24 h skin conc” value came out at 2.4 ± 2.1 µmol/g. Also, under setting [2], the “24 h cumulative amt” value came to 8.0 ± 1.8 nmol, the “24 h skin conc” value amounted to 20.8 ± 21.1 µmol/g, the Flux is listed as 0.5 ± 0.1 nmol/cm^2/h and the Lag time is on record as 7.6 ± 2.1 h. Moreover, under setting [3], the “24 h cumulative amt” value was found to be 8.0 ± 1.8 nmol, the “24 h skin conc” value stood at 23.2 ± 23.2 µmol/g, the Flux was found to be 0.5 ± 0.1 nmol/cm^2/h and the Lag time was found to be 7.6 ± 2.1 h. Besides, the Flux enhancement (Table 19, gel formulation) worked out at 0.63. Besides, under “in gel formulation”, the “detected in the skin as” value was “mostly intact prodrug and small amounts of cannabidiol”; the “flux compared to cannabidiol” value is reported as “did not increase the flux”; the “lag time compared to cannabidiol” value is given as “similar”; the “permeated through the skin as” value was “intact prodrug only”. Moreover, for the setting “in gel formulation”, the “total skin concentrations compared to cannabidiol” value is given as “higher”.

Take `C=C(C)C1CCC(C)=CC1c1c(O)cc(CCCCC)cc1OC(=O)CCN(C)C` (centres unmarked) [ALL00150, CBD 3-(dimethylamino)propionate]: the “24 h skin conc” value under setting [4] came out at 7.9 ± 2.3 µmol/g; the “24 h skin conc” value under setting [5] came out at 47.7 ± 3.0 µmol/g; the “24 h skin conc” value under setting [6] came to 55.6 ± 5.3 µmol/g; the “24 h skin conc” value (Table 22, anhydrous gel formulation, CBD from applied prodrug) worked out at 1.1 ± 0.8 µmol/g; the “24 h skin conc” value (Table 22, anhydrous gel formulation, as applied compound (CBD or intact prodrug)) stood at 5.6 ± 3.1 µmol/g; the “24 h skin conc” value (Table 22, anhydrous gel formulation, prodrug applied, as total cannabidiol equivalents) is 6.7 ± 3.8 µmol/g. For the same molecule, the “concentrations in the skin, anhydrous gel formulation compared to the ethanol based gel formulation” value (anhydrous gel versus ethanol based gel) is reported as “much lower”. The “detected in the skin as” value by setting is: under setting [8], “ALL00150 and cannabidiol”; (in gel formulation) “primarily ALL00150 with a small amount of cannabidiol”. Also, the “permeation through the skin” value under setting [8] was “did not permeate through the skin”. Besides, the “total skin concentrations compared to cannabidiol” value is, setting by setting: under setting [8], “higher”; (in gel formulation) “higher”. Besides, for the setting “in gel formulation”, the “permeated through the skin as” value was “did not permeate through the skin”.
